# Paper PMC9668928, “Zandelisib (ME-401) in Japanese patients with relapsed or refractory indolent non-Hodgkin’s lymphoma: an open-label, multicenter, dose-escalation phase 1 study” (International Journal of Hematology, 2022)
# Where “and” joins values, the source holds several entries; their conditions need not be identical. Identical values can stand only once. Entries after “also recorded” stand apart in the source; their conditions may differ. Marks after values point to notes of the source that are not given here.
# Assays:
# [1] = system: relapsed/refractory indolent non-Hodgkin's lymphoma (R/R iNHL); test: Phase 1 study: anti-tumor efficacy, investigator-assessed, modified Lugano criteria; assay type: in vivo, human
# Protocol: Efficacy endpoints included ORR; duration of response (DOR); progression-free survival (PFS); time to first response (TTR); and change in tumor size from baseline. Response was assessed by investigators based on the modified Lugano Classification lymphoma response criteria (modified Lugano criteria). If complete response (CR) was achieved by CT- or MRI-based assessment (not including bone marrow biopsy), PET/CT was performed to assess metabolic response (except for patients whose FDG-avidity was “non-avid” in the screening test). Additionally, a bone marrow biopsy was also performed if complete metabolic response was confirmed by PET/CT-based assessment. For efficacy outcomes, the Clopper–Pearson method was used to obtain 95% confidence intervals (CIs) for ORR. The Kaplan–Meier method was used to estimate the DOR and PFS for each cohort and overall. Statistical analyses were performed using SAS® software version 9.4 (SAS Institute Inc., Cary, NC, USA).
# PI3Kδ = system: PI3Kδ; set-up: method as in PMID 21378270, PMID 21803855, PMID 20959606, PMID 31506873; conditions: cited from earlier work
# PI3Kδ signaling pathway = system: PI3Kδ signaling pathway; set-up: method as in PMID 21378270, PMID 21803855, PMID 20959606, PMID 31506873; conditions: read-out: half maximal inhibitory concentration [IC50]; cited from earlier work
# [2] = system: patients with B-cell malignancies; conditions: phase 1b; cited from earlier work
# [3] = Phase 1 study: plasma pharmacokinetics, non-compartmental analysis; assay type: in vivo, human; conditions: for pre-dose concentration, mean ± SD: 60 mg daily; for median tmax: after single and multiple doses
# Excerpt: The primary endpoint was the safety [number of patients with treatment-emergent adverse events (TEAEs), based on Common Terminology Criteria for Adverse Events version 5.0] and tolerability (including laboratory values, vital signs, and electrocardiogram performance) of zandelisib in Japanese patients. Hepatobiliary disorder, aspartate/alanine (AST/ALT) increased, diarrhea/colitis, organizing pneumonia, stomatitis, or rash were defined as irAEs in this manuscript. Secondary endpoints included PK (plasma concentrations and PK parameters) and the efficacy of zandelisib. Blood samples for PK evaluation were collected at pre-dose, 1.5, 3, 5, 8, 10, 12 (optional), and 24 h post-dose on Cycle 1 day 1 and Cycle 2 day 1, and at pre-dose on Cycle 1 days 8, 15, and 22. The PK parameters for Cycle 1 day 1 and Cycle 2 day 1 were calculated for each patient by non-compartmental analysis. PK parameters included maximum plasma drug concentration (Cmax), area under the plasma concentration–time curve (AUC) from time zero to the last measurable point (AUC0–t), the AUC from time zero to infinity (AUC0-inf), and terminal half-life (t1/2).
# basophil activation = system: basophil activation; set-up: method as in PMID 30458930; conditions: 60 mg/day; cited from earlier work
# [4] = N = 9, median follow-up 17.5 months
smiles,measurement,setting,value
CN1CCC(c2ccccc2CC(C)(C)Nc2nc(N3CCOCC3)nc(-n3c(C(F)F)nc4ccccc43)n2)CC1 [zandelisib],median PFS,[1]; 45 mg group,11.1 months
same,Best overall response: Complete response,"[1]; 45 mg, n = 3",0 (0.0) n (%)
same,Best overall response: Partial response,"[1]; 45 mg, n = 3",3 (100.0) n (%)
same,Best overall response: Progressive disease,"[1]; 45 mg, n = 3",0 n (%)
same,Best overall response: Stable disease,"[1]; 45 mg, n = 3",0 n (%)
same,"Objective response rate, % (95% CI)","[1]; 45 mg, n = 3",100.0 (29.2–100.0) %
same,median DOR,[1]; 60 mg group,11.3 months
same,median PFS,[1]; 60 mg group,13.3 months
same,Best overall response: Complete response,"[1]; 60 mg, n = 6",2 (33.3) n (%)
same,Best overall response: Partial response,"[1]; 60 mg, n = 6",4 (66.7) n (%)
same,Best overall response: Progressive disease,"[1]; 60 mg, n = 6",0 n (%)
same,Best overall response: Stable disease,"[1]; 60 mg, n = 6",0 n (%)
same,"Objective response rate, % (95% CI)","[1]; 60 mg, n = 6",100.0 (54.1–100.0) %
same,median duration of response (DOR),[1]; [4],7.9 months and 7.9 (95% CI 2.8–14.7) months
same,median progression-free survival (PFS),[1]; [4],11.1 months and 11.1 (95% CI 4.6–16.7) months
same,median time to response (TTR),[1]; [4],1.9 months and 1.9 (95% CI 1.8–2.1) months
same,complete response (CR) rate,"[1]; N = 9, 2 FL patients receiving 60 mg/day",22.2% and 22%
same,Best overall response: Complete response,"[1]; Total, N = 9",2 (22.2) n (%)
same,Best overall response: Partial response,"[1]; Total, N = 9",7 (77.8) n (%)
same,Best overall response: Progressive disease,"[1]; Total, N = 9",0 n (%)
same,Best overall response: Stable disease,"[1]; Total, N = 9",0 n (%)
same,"Objective response rate, % (95% CI)","[1]; Total, N = 9",100.0 (66.4–100.0) %
same,patients achieved response at week 8,[1]; after 2 administration cycles,8/9
same,decrease from baseline in the sum of perpendicular diameters,"[1]; all patients, N = 9",> 50%
same,best overall response of partial response (PR),"[1]; cohort 1, 45 mg",3/3
same,best overall response of CR,"[1]; cohort 2, 60 mg",2/6
same,best overall response of PR,"[1]; cohort 2, 60 mg",4/6
same,patients regained response after switching back from IDT to CS,[1]; of patients switched back to CS after PD,2/4
same,target binding,PI3Kδ,> 5 h
same,IC50,PI3Kδ signaling pathway,0.6 nM
same,dose-limiting toxicities (DLTs),[2],No dose-limiting toxicities (DLTs) were reported
same,maximum tolerated dose (MTD),[2],not reached
same,objective response rate (ORR),[2],79%
same,recommended phase 2 dose (RP2D),[2],60 mg/day
same,"AUC0–inf, mean ± SD","[3]; 45 mg, Cycle 1 day 1, n = 2",479 ± 112^c ng h/mL
same,"t1/2, mean ± SD","[3]; 45 mg, Cycle 1 day 1, n = 2",12.5 ± 0.8^c h
same,"AUC0–t (24 h), mean ± SD","[3]; 45 mg, Cycle 1 day 1, n = 3",304 ± 90 ng·h/mL
same,"Cmax, mean ± SD","[3]; 45 mg, Cycle 1 day 1, n = 3",27.5 ± 11.0 ng/mL
same,"tmax, median (min–max)","[3]; 45 mg, Cycle 1 day 1, n = 3",3.00 (2.88–9.53) h
same,"t1/2, mean ± SD","[3]; 45 mg, Cycle 2 day 1, n = 2",32.5 ± 10.3^c h
same,"AUC0–t (24 h), mean ± SD","[3]; 45 mg, Cycle 2 day 1, n = 3",601 ± 171 ng·h/mL
same,"Cmax, mean ± SD","[3]; 45 mg, Cycle 2 day 1, n = 3",46.4 ± 6.2 ng/mL
same,"tmax, median (min–max)","[3]; 45 mg, Cycle 2 day 1, n = 3",3.08 (2.95–7.98) h
same,"pre-dose concentration, mean ± SD",[3]; Cycle 1 Day 8,25.2 ± 8.2 ng/mL
same,"pre-dose concentration, mean ± SD",[3]; Cycle 1 Day 15,26.1 ± 9.6 ng/mL
same,"pre-dose concentration, mean ± SD",[3]; Cycle 1 Day 22,28.2 ± 9.5 ng/mL
same,"pre-dose concentration, mean ± SD",[3]; Cycle 2 Day 1,26.2 ± 13.1 ng/mL
same,"AUC0–inf, mean ± SD","[3]; 60 mg, Cycle 1 day 1, n = 6",731 ± 331 ng·h/mL
same,"AUC0–t (24 h), mean ± SD","[3]; 60 mg, Cycle 1 day 1, n = 6",435 ± 161 ng·h/mL
same,"Cmax, mean ± SD","[3]; 60 mg, Cycle 1 day 1, n = 6",36.6 ± 13.2 ng/mL
same,"t1/2, mean ± SD","[3]; 60 mg, Cycle 1 day 1, n = 6",16.4 ± 3.9 h
same,"tmax, median (min–max)","[3]; 60 mg, Cycle 1 day 1, n = 6",3.94 (3.00–7.83) h
same,"t1/2, mean ± SD","[3]; 60 mg, Cycle 2 day 1, n = 5",23.5 ± 10.9^d h
same,"AUC0–t (24 h), mean ± SD","[3]; 60 mg, Cycle 2 day 1, n = 6",974 ± 339 ng·h/mL
same,"Cmax, mean ± SD","[3]; 60 mg, Cycle 2 day 1, n = 6",62.8 ± 19.4 ng/mL
same,"tmax, median (min–max)","[3]; 60 mg, Cycle 2 day 1, n = 6",4.96 (2.83–8.00) h
same,dose proportionality of exposure (Cmax and AUC),[3]; 45 and 60 mg,generally dose proportional up to 60 mg/day
same,exposures (Cmax and AUC) on Cycle 2 Day 1 versus Cycle 1 Day 1,[3]; 45 and 60 mg,1.5–2 fold
same,median tmax,[3]; 45 mg,3 h
same,median tmax,[3]; 60 mg,~ 4.96 h
same,time to PK steady state,[3]; daily dosing,PK reached steady state by Day 8; also recorded: reached steady state following 7 days of dosing
same,target inhibition at trough plasma concentrations,basophil activation,≥ 90%
